Test results taken from patent US6214816A, “Heterocyclic compounds” (Novo Nordisk A/S, priority 1998, dated 2001).
Where a name gives a salt, the structure may show the parent alone.

System: histamine induced paw oedema
Assay: Histamine induced paw oedema
Assay type: in vivo, rat (male Sprague-Dawley)
Settings: ip, intraperitoneally 15 minutes before the anaesthetics, paw swelling 20 minutes after histamine, rat
Method: Compounds of formula I may be used to treat all painful, hyperalgesic and/or inflammatory conditions in which C-fibres play a pathophysiological role by eliciting neurogenic pain or inflammation, i.e.: The rat histamine paw oedema test was performed essentially as described by Amann et al. (Europ. J. Pharmacol. 279, 227-231, 1995). In brief 250-300 g male Sprague-Dawley rats were anaesthetized with pentobarbital sodium, and placed on a 32 degree Celsius heated table. Ten minutes later histamine (50 micoliter, 3 mg/ml) was injected in the right hind paw and 20 minutes hereafter the paw swelling was determined by water plethysmography (Ugo Basile). Test compounds were administered intraperitoneally at 15 minutes before the anaesthetics.

O=C(O)CCN1CCC(CN2c3ccccc3CCc3ccccc32)C1 (stereo not shown) [Example 1, 3-(3-(10,11-Dihydro-5H-dibenzo[b,f]azepin-5-ylmethyl)-pyrrolidin-1-yl)-propionic acid hydrochloride]
inhibition at 1 mg/kg: 56%
